Measurements reported in PubChem BioAssay (NCI).
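48-hour exposure; five concentrations; linearly interpolated endpoints. At the GI50, growth is halved. At the TGI there is no net growth.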

Key:
Assay in all cases: NCI-60 cell line screen, 48 h
[1] = system: 786-0 renal
[2] = system: A498 renal
[3] = system: A549 NSCLC
[4] = system: ACHN renal
[5] = system: BT-549 breast
[6] = system: CAKI-1 renal
[7] = system: CCRF-CEM leukemia
[8] = system: COLO 205 colon
[9] = system: DU-145 prostate
[10] = system: EKVX NSCLC
[11] = system: HCC-2998 colon
[12] = system: HCT-116 colon
[13] = system: HCT-15 colon
[14] = system: HL-60(TB) leukemia
[15] = system: HOP-62 NSCLC
[16] = system: HOP-92 NSCLC
[17] = system: HS 578T breast
[18] = system: HT29 colon
[19] = system: K-562 leukemia
[20] = system: KM12 colon
[21] = system: LOX IMVI melanoma
[22] = system: M14 melanoma
[23] = system: MALME-3M melanoma
[24] = system: MCF7 breast
[25] = system: MDA-MB-231 breast
[26] = system: MDA-MB-435
[27] = system: MOLT-4 leukemia
[28] = system: NCI-H226 lung
[29] = system: NCI-H23 lung
[30] = system: NCI-H460 lung
[31] = system: NCI/ADR-RES ovarian
[32] = system: OVCAR-3 ovarian
[33] = system: OVCAR-5 ovarian
[34] = system: OVCAR-8 ovarian
[35] = system: PC-3 prostate
[36] = system: RPMI-8226 leukemia
[37] = system: RXF 393 renal
[38] = system: SF-268 CNS
[39] = system: SF-295 CNS
[40] = system: SF-539 CNS
[41] = system: SK-MEL-2 melanoma
[42] = system: SK-MEL-5 melanoma
[43] = system: SK-OV-3 ovarian
[44] = system: SN12C renal
[45] = system: SNB-19 CNS
[46] = system: SNB-75 CNS
[47] = system: SR leukemia
[48] = system: SW-620 colon
[49] = system: T-47D breast
[50] = system: U251 CNS
[51] = system: UACC-257 melanoma
[52] = system: UACC-62 melanoma
[53] = system: UO-31 renal
[54] = system: IGROV1 ovarian
[55] = system: OVCAR-4 ovarian
[56] = system: SK-MEL-28 melanoma
[57] = system: TK-10 renal

SMILES: NCCCn1c2c(c3ccc([N+](=O)[O-])cc3c1=O)C(=O)c1cc(I)ccc1-2
- GI50 [1]: 0.021 µM
- TGI [1]: 1.14 µM
- GI50 [2]: 3.02 µM
- TGI [2]: 7.72 µM
- GI50 [3]: 0.0133 µM
- TGI [3]: 1.74 µM
- GI50 [4]: < 0.0179 µM
- TGI [4]: 1.29 µM
- GI50 [5]: 0.931 µM
- TGI [5]: 2.51 µM
- GI50 [6]: 0.0758 µM
- TGI [6]: 1.98 µM
- GI50 [7]: < 0.01 µM
- TGI [7]: 0.279 µM
- GI50 [8]: 1.02 µM
- TGI [8]: 2.44 µM
- GI50 [9]: < 0.01 µM
- TGI [9]: 0.118 µM
- GI50 [10]: 0.79 µM
- TGI [10]: 2.32 µM
- GI50 [11]: 0.307 µM
- TGI [11]: 1.71 µM
- GI50 [12]: < 0.01 µM
- TGI [12]: 0.201 µM
- GI50 [13]: 0.17 µM
- TGI [13]: 1.79 µM
- GI50 [14]: < 0.0176 µM
- TGI [14]: 0.0733 µM
- GI50 [15]: 0.0211 µM
- TGI [15]: 1.75 µM
- GI50 [16]: 0.65 µM
- TGI [16]: 2.25 µM
- GI50 [17]: 1.98 µM
- TGI [17]: 4.33 µM
- GI50 [18]: 0.0951 µM
- TGI [18]: 0.352 µM
- GI50 [19]: < 0.0147 µM
- TGI [19]: 0.196 µM
- GI50 [20]: 0.127 µM
- TGI [20]: 1.31 µM
- GI50 [21]: < 0.01 µM
- TGI [21]: 1.39 µM
- GI50 [22]: 0.0315 µM
- TGI [22]: 1.32 µM
- GI50 [23]: 0.228 µM
- TGI [23]: 1.86 µM
- GI50 [24]: < 0.01 µM
- TGI [24]: 0.517 µM
- GI50 [25]: 1.8 µM
- TGI [25]: 3.48 µM
- GI50 [26]: 0.223 µM
- TGI [26]: 1.85 µM
- GI50 [27]: < 0.01 µM
- TGI [27]: 0.251 µM
- GI50 [28]: 0.786 µM
- TGI [28]: 26.2 µM
- GI50 [29]: 0.0343 µM
- TGI [29]: 1.22 µM
- GI50 [30]: < 0.01 µM
- TGI [30]: 1.31 µM
- GI50 [31]: 0.0416 µM
- TGI [31]: 1.88 µM
- GI50 [32]: 1.19 µM
- TGI [32]: 2.9 µM
- GI50 [33]: 0.556 µM
- TGI [33]: 1.95 µM
- GI50 [34]: 0.0268 µM
- TGI [34]: 0.234 µM
- GI50 [35]: 0.563 µM
- TGI [35]: 2.07 µM
- GI50 [36]: 0.0218 µM
- TGI [36]: 0.265 µM
- GI50 [37]: 0.503 µM
- TGI [37]: 2.28 µM
- GI50 [38]: 0.0841 µM
- TGI [38]: 3.43 µM
- GI50 [39]: < 0.0218 µM
- TGI [39]: 1.53 µM
- GI50 [40]: 0.0435 µM
- TGI [40]: 1.21 µM
- GI50 [41]: 0.649 µM
- TGI [41]: 2.28 µM
- GI50 [42]: 0.172 µM
- TGI [42]: 1.45 µM
- GI50 [43]: 0.0825 µM
- TGI [43]: 6.5 µM
- GI50 [44]: < 0.0234 µM
- TGI [44]: 1.78 µM
- GI50 [45]: < 0.01 µM
- TGI [45]: 1.61 µM
- GI50 [46]: 0.95 µM
- TGI [46]: 3.9 µM
- GI50 [47]: < 0.01 µM
- TGI [47]: 0.929 µM
- GI50 [48]: < 0.01 µM
- TGI [48]: 1.76 µM
- GI50 [49]: 0.0446 µM
- TGI [49]: 2.08 µM
- GI50 [50]: < 0.01 µM
- TGI [50]: 1.39 µM
- GI50 [51]: 1.1 µM
- TGI [51]: 2.55 µM
- GI50 [52]: < 0.01 µM
- TGI [52]: 1.21 µM
- GI50 [53]: 0.0273 µM
- TGI [53]: 1.5 µM

SMILES: CNCCCNc1ccnc2cc(Cl)ccc12
- GI50 [1]: 32.9 µM
- TGI [1]: > 100 µM
- GI50 [2]: 12.4 µM
- TGI [2]: 40.3 µM
- GI50 [4]: 19 µM
- TGI [4]: 61.3 µM
- GI50 [5]: 28.3 µM
- TGI [5]: > 100 µM
- GI50 [6]: 17.3 µM
- TGI [6]: 48.6 µM
- GI50 [8]: 12.6 µM
- TGI [8]: 27.4 µM
- GI50 [9]: 17.3 µM
- TGI [9]: 38.5 µM
- GI50 [11]: 28.7 µM
- TGI [11]: > 100 µM
- GI50 [12]: 11.2 µM
- TGI [12]: 41.4 µM
- GI50 [13]: 23.3 µM
- TGI [13]: 94.4 µM
- GI50 [14]: 22.1 µM
- TGI [14]: 65 µM
- GI50 [15]: 22.4 µM
- TGI [15]: > 100 µM
- GI50 [16]: 9.51 µM
- TGI [16]: 39.1 µM
- GI50 [17]: 20.8 µM
- TGI [17]: 78 µM
- GI50 [18]: 13.4 µM
- TGI [18]: 55.5 µM
- GI50 [54]: 18.8 µM
- TGI [54]: 63.8 µM
- GI50 [19]: 15.2 µM
- TGI [19]: > 100 µM
- GI50 [20]: 19.4 µM
- TGI [20]: 67.6 µM
- GI50 [21]: 16.8 µM
- TGI [21]: 36.6 µM
- GI50 [22]: 16 µM
- TGI [22]: 34.4 µM
- GI50 [23]: 19.7 µM
- TGI [23]: 40.5 µM
- GI50 [24]: 23.4 µM
- TGI [24]: 83.8 µM
- GI50 [25]: 12.7 µM
- TGI [25]: 56.5 µM
- GI50 [26]: 14.4 µM
- TGI [26]: 28.4 µM
- GI50 [27]: 20.6 µM
- TGI [27]: 69.9 µM
- GI50 [28]: 25.9 µM
- TGI [28]: 87.5 µM
- GI50 [29]: 30.8 µM
- TGI [29]: > 100 µM
- GI50 [30]: 17.9 µM
- TGI [30]: 37.8 µM
- GI50 [31]: 34.4 µM
- TGI [31]: > 100 µM
- GI50 [32]: 27.6 µM
- TGI [32]: 95.5 µM
- GI50 [55]: 18.7 µM
- TGI [55]: 57.4 µM
- GI50 [33]: 21.1 µM
- TGI [33]: 72 µM
- GI50 [34]: 28.3 µM
- TGI [34]: > 100 µM
- GI50 [35]: 17.9 µM
- TGI [35]: 57 µM
- GI50 [36]: 20 µM
- TGI [36]: 55.7 µM
- GI50 [37]: 14.5 µM
- TGI [37]: 65.4 µM
- GI50 [38]: 22.6 µM
- TGI [38]: 98.3 µM
- GI50 [39]: 27.1 µM
- TGI [39]: > 100 µM
- GI50 [40]: 17 µM
- TGI [40]: 33.1 µM
- GI50 [41]: 19.6 µM
- TGI [41]: 37.9 µM
- GI50 [56]: 15.5 µM
- TGI [56]: 34.6 µM
- GI50 [42]: 16.4 µM
- TGI [42]: 31.6 µM
- GI50 [43]: 21.9 µM
- TGI [43]: 60.8 µM
- GI50 [44]: 24.6 µM
- TGI [44]: > 100 µM
- GI50 [45]: 36.1 µM
- TGI [45]: > 100 µM
- GI50 [46]: 16.4 µM
- TGI [46]: 82 µM
- GI50 [47]: 22.5 µM
- TGI [47]: 70.8 µM
- GI50 [48]: 13.2 µM
- TGI [48]: 58.8 µM
- GI50 [49]: 25.7 µM
- TGI [49]: > 100 µM
- GI50 [57]: 18 µM
- TGI [57]: 54.4 µM
- GI50 [50]: 22.5 µM
- TGI [50]: 62.4 µM
- GI50 [52]: 20.1 µM
- TGI [52]: 45.7 µM
- GI50 [53]: 12.8 µM
- TGI [53]: 47.7 µM
